From patent US8362000B2, “Azetidinyl diamides as monoacylglycerol lipase inhibitors” (Janssen Pharmaceutica NV, priority 2009, dated 2013)
Numbering of substitutions follows the chain as printed. Where two headings read alike, the source gives them in different places. Blank lines part the entries; values can stand above or below the compound they belong to.

How the values were obtained:
MGL = biological target: T1, MGL (Rattus norvegicus, UniProt Q8R431); experiment: 2-AG accumulation assay in rat brain homogenate; type: biochemical; details: rat brain homogenate, 2-AG accumulation as percent of vehicle; for 2-AG accumulation, % of vehicle control at 1 µM: compound 1 μM, read-out: Rat Brain 2AG % VehCntrl (%) @ 1 μM; for 2-AG accumulation, % of vehicle control at 10 µM: compound 10 μM, read-out: Rat Brain 2AG % VehCntrl (%) @ 10 μM
T1 construct: one g rat brain was homogenized using a Polytron homogenizer; from tissue; host or cells: rat brain homogenate
T1 sequence (Q8R431 1-303): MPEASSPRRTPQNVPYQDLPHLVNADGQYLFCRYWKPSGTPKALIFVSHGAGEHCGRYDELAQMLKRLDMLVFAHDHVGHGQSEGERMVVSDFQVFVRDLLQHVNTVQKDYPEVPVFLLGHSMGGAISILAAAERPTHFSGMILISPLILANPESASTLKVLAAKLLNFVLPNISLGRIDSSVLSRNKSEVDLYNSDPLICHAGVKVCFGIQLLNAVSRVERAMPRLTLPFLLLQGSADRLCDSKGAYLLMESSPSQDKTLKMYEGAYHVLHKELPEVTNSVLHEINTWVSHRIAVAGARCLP

mutant MGL = biological target: T2, mutant MGL (Homo sapiens, UniProt Q99685, L169S/L176S); experiment: MGL ThermoFluor assay - mutant; type: binding
T2 sequence (Q99685 1-303 L169S/L176S): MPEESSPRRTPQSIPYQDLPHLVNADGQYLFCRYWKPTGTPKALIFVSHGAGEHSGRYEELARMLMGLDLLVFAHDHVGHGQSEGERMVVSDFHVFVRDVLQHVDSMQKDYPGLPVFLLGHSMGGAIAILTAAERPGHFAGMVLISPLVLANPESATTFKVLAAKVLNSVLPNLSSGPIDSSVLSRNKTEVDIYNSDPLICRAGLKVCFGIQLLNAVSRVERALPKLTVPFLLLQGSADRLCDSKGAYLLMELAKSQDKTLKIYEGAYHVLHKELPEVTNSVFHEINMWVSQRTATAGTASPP
Experimental: The ThermoFluor (TF) assay is a 384-well plate-based binding assay that measures thermal stability of proteins^1,2. […] TF dye used in all experiments was 1,8-ANS (Invitrogen: A-47). Final TF assay conditions used for MGL studies were 0.07 mg/ml of mutant MGL, 100 μM ANS, 200 mM NaCl, 0.001% Tween-20 in 50 mM PIPES (pH=7.0).
Screening compound plates contained 100% DMSO compound solutions at a single concentration. […] Columns 12 and 24 were used as DMSO reference and contained no compound. […] Following compound dispension, protein and dye solutions were added to achieve the final assay volume of 3 μL.
Bar-coded assay plates were robotically loaded onto a thermostatically controlled PCR-type thermal block and then heated from 40 to 90° C. degrees at a ramp-rate of 1° C./min for all experiments. Fluorescence was measured by continuous illumination with UV light (Hamamatsu LC6), supplied via fiber optics and filtered through a band-pass filter (380-400 nm; >60D cutoff). Fluorescence emission of the entire 384-well plate was detected by measuring light intensity using a CCD camera (Sensys, Roper Scientific) filtered to detect 500±25 nm, resulting in simultaneous and independent readings of all 384 wells. A single image with 20-sec exposure time was collected at each temperature, and the sum of the pixel intensity in a given area of the assay plate was recorded vs temperature and fit to standard equations to yield the Tm^1. • 1.
For some experiments, quantitative NMR spectroscopy (qNMR) was used to measure concentration of the initial 100% DMSO compound solutions and, using the same fitting method, qKd values were determined

[1] = biological target: T3, purified wild type MGL (wt-MGLL 6H-11-313) (Homo sapiens, UniProt Q99685)
T3 sequence (Q99685 1-303): T2 sequence (Q99685 1-303 L169S/L176S) with S169L, S176L

[2] = ThermoFluor, compound concentration measured by qNMR, read-out: MGL mutant ThermoFluor qKd (using qNMR conc.)
[3] = compound concentration measured by qNMR, read-out: MGL mutant ThermoFluor qKd (using qNMR conc.)
[4] = ThermoFluor, compound concentration measured by qNMR, read-out: MGL mutant ThermoFluor qKd (μM) (using qNMR conc.)
[5] = ThermoFluor thermal stability binding assay, read-out: MGL mutant ThermoFluor Kd
[6] = ThermoFluor concentration-response, read-out: MGL mutant ThermoFluor Kd

SMILES: O=C(c1ccc2c(c1)CCCN2C(=O)c1ccc(C(F)(F)F)cc1)N1CC(N2CCN(C(=O)c3nccs3)CC2)C1 [Cpd 365, 6-({3-[4-(1,3-Thiazol-2-ylcarbonyl)piperazin-1-yl]azetidin-1-yl}carbonyl)-1-(4-trifluoromethylbenzoyl)-1,2,3,4-tetrahydroquinoline]
2-AG accumulation, % of vehicle control at 1 µM (MGL): 971%

SMILES: O=C(c1ccccc1)N1CC(N2CCN(C(=O)c3ccc(-c4ccccc4)cc3)C(c3ccccc3)C2)C1 (stereo not shown) [Cpd 44, 1-(Biphenyl-4-ylcarbonyl)-2-phenyl-4-[1-(phenylcarbonyl)azetidin-3-yl]piperazine]
2-AG accumulation, % of vehicle control at 10 µM (MGL): 238%

SMILES: O=C(c1ccccc1)N1CCN(C2CN(C(=O)c3ccc4c(ccn4-c4ncccn4)c3)C2)CC1 [Cpd 595, 5-({3-[4-(Phenylcarbonyl)piperazin-1-yl]azetidin-1-yl}carbonyl)-1-pyrimidin-2-yl-1H-indole]
2-AG accumulation, % of vehicle control at 1 µM (MGL): 128%

SMILES: O=C(c1ccc(SCc2cccc(C(F)(F)F)c2)cc1)N1CC(N2CCN(C(=O)c3nccs3)CC2)C1 [Cpd 973]
2-AG accumulation, % of vehicle control at 1 µM (MGL): 806%

SMILES: O=Cc1cccc(-c2ccc(C(=O)N3CC(N4CCN(C(=O)c5nccs5)CC4)C3)cc2)c1 [Cpd 210, 4′-({3-[4-(1,3-Thiazol-2-ylcarbonyl)piperazin-1-yl]azetidin-1-yl}carbonyl)biphenyl-3-carbaldehyde]
2-AG accumulation, % of vehicle control at 10 µM (MGL): 122%

SMILES: CC1(C)c2ccccc2-c2ccc(C(=O)N3CC(N4CCN(C(=O)c5nccs5)CC4)C3)cc21 [Cpd 952]
Kd (mutant MGL; [2]): 0.019 µM
IC50 [1]: 12 nM

SMILES: O=C(c1ccc(Oc2cc(C(F)(F)F)ccn2)cc1)N1CC(N2CCN(C(=O)C(F)(F)F)CC2)C1 [Cpd 837]
Kd (mutant MGL; [3]): 20 µM
IC50 [1]: 5040 nM

SMILES: O=C(c1ccc2c(ccn2-c2ccc(F)cc2)c1)N1CC(N2CCN(C(=O)c3ccc(Cl)o3)CC2)C1 [Cpd 1425]
Kd (mutant MGL; [4]): 0.019 µM
IC50 [1]: 9 nM

SMILES: O=C(c1cc[nH]c1)N1CCN(C2CN(C(=O)c3ccc(-c4cccc(C(F)(F)F)c4)cc3)C2)CC1 [Cpd 1324]
Kd (mutant MGL; [5]): 0.016 µM
IC50 [1]: < 5 nM

SMILES: O=C(c1ccc2c(c1)[nH]c(=O)n2C1CCC(F)(F)CC1)N1CC(N2CCN(C(=O)c3cscn3)CC2)C1 [Cpd 945]
Kd (mutant MGL; [6]): 0.083 µM
IC50 [1]: 1480 nM

SMILES: CC(c1ccccc1)n1cc2cc(C(=O)N3CC(N4CCN(C(=O)c5nccs5)CC4)C3)ccc2n1 (stereo not shown) [Cpd 1040, 2-(1-Phenylethyl)-5-({3-[4-(1,3-thiazol-2-ylcarbonyl)piperazin-1-yl]azetidin-1-yl}carbonyl)-2H-indazole]
Kd (mutant MGL; [3]): 0.014 µM
IC50 [1]: 25 nM

SMILES: Cn1cc(C(=O)N2CC(N3CCN(C(=O)c4nccs4)CC3)C2)c2ccccc21 [Cpd 838]
Kd (mutant MGL; [6]): 0.978 µM
IC50 [1]: 5110 nM

SMILES: O=C(c1nccs1)N1CC(N2CCN(C(=O)c3ccc(-c4ccccc4)cc3)C(Cc3ccccc3)C2)C1 (stereo not shown) [Cpd 1266, 2-Benzyl-1-(biphenyl-4-ylcarbonyl)-4-[1-(1,3-thiazol-2-ylcarbonyl)azetidin-3-yl]piperazine]
Kd (mutant MGL; [6]): 0.032 µM
IC50 [1]: 1080 nM

SMILES: O=C(c1ccc(-c2ccccc2)cc1)N1CC(N2CCN(C(=O)c3nccs3)CC2C(F)(F)F)C1 (stereo not shown) [Cpd 1306, 1-[1-(Biphenyl-4-ylcarbonyl)azetidin-3-yl]-4-(1,3-thiazol-2-ylcarbonyl)-2-(trifluoromethyl)piperazine]
Kd (mutant MGL; [4]): 12.2 µM
IC50 [1]: 8150 nM

SMILES: O=C(c1ccc(N2CCOCC2)cc1)N1CC(N2CCN(C(=O)c3nccs3)CC2)C1 [Cpd 815]
Kd (mutant MGL; [6]): 0.25 µM
IC50 [1]: 2490 nM

SMILES: O=C(c1ccc(Oc2ccccn2)c(Cl)c1)N1CC(N2CCN(C(=O)c3nccs3)CC2)C1 [Cpd 752]
Kd (mutant MGL; [6]): 0.095 µM
IC50 [1]: 421 nM

SMILES: O=C(c1sc2cc(C(F)(F)F)ccc2c1Cl)N1CC(N2CCN(C(=O)C(F)(F)F)CC2)C1 [Cpd 656, 1-(1-{[3-Chloro-6-(trifluoromethyl)-1-benzothiophen-2-yl]carbonyl}azetidin-3-yl)-4-(trifluoroacetyl)piperazine]
Kd (mutant MGL; [2]): 0.101 µM
IC50 [1]: 8 nM

More lines, now with the values ahead:

2-AG accumulation, % of vehicle control at 10 µM (MGL): 582%
SMILES: Cc1nc(-c2cccs2)sc1C(=O)N1CC(N2CCN(C(=O)c3nccs3)CC2)C1 [Cpd 134, 1-{1-[(4-Methyl-2-thiophen-2-yl-1,3-thiazol-5-yl)carbonyl]azetidin-3-yl}-4-(1,3-thiazol-2-ylcarbonyl)piperazine]

2-AG accumulation, % of vehicle control at 10 µM (MGL): 506%
SMILES: CC(C)Oc1cccc(-c2ccc(C(=O)N3CC(N4CCN(C(=O)c5ccccc5)CC4)C3)cc2)c1 [Cpd 188, 1-(1-{[3′-(1-Methylethoxy)biphenyl-4-yl]carbonyl}azetidin-3-yl)-4-(phenylcarbonyl)piperazine]

2-AG accumulation, % of vehicle control at 1 µM (MGL): 259%
SMILES: O=C(c1cscn1)N1CCN(C2CN(C(=O)c3cc4c(C(F)(F)F)cccc4s3)C2)CC1 [Cpd 334, 1-(1,3-Thiazol-4-ylcarbonyl)-4-(1-{[4-(trifluoromethyl)-1-benzothiophen-2-yl]carbonyl}azetidin-3-yl)piperazine]

2-AG accumulation, % of vehicle control at 10 µM (MGL): 876%
SMILES: O=C(CCc1c(Cl)cccc1Cl)N1CC(N2CCN(C(=O)c3nccs3)CC2)C1 [Cpd 274, 1-{1-[3-(2,6-Dichlorophenyl)propanoyl]azetidin-3-yl}-4-(1,3-thiazol-2-ylcarbonyl)piperazine]

2-AG accumulation, % of vehicle control at 10 µM (MGL): 910%
SMILES: O=C(c1ccc(-c2ccc(F)cc2F)cc1)N1CC(N2CCN(C(=O)c3nccs3)CC2)C1 [Cpd 179, 1-{1-[(2′,4′-Difluorobiphenyl-4-yl)carbonyl]azetidin-3-yl}-4-(1,3-thiazol-2-ylcarbonyl)piperazine]

2-AG accumulation, % of vehicle control at 10 µM (MGL): 769%
SMILES: COc1cc(F)c(F)cc1-c1ccc(C(=O)N2CC(N3CCN(C(=O)c4nccs4)CC3)C2)cc1 [Cpd 214, 1-{1-[(4′,5′-Difluoro-2′-methoxybiphenyl-4-yl)carbonyl]azetidin-3-yl}-4-(1,3-thiazol-2-ylcarbonyl)piperazine]

2-AG accumulation, % of vehicle control at 10 µM (MGL): 676%
SMILES: O=C(c1ccc(-c2ccccc2C(F)(F)F)cc1)N1CC(N2CCN(C(=O)c3nccs3)CC2)C1 [Cpd 147, 1-(1,3-Thiazol-2-ylcarbonyl)-4-(1-{[2′-(trifluoromethyl)biphenyl-4-yl]carbonyl}azetidin-3-yl)piperazine]

2-AG accumulation, % of vehicle control at 10 µM (MGL): 288%
SMILES: O=C(c1ccccc1)N1CCN(C2CN(C(=O)c3cc4ccc(-c5ccccc5)cc4s3)C2)CC1 [Cpd 342, 1-{1-[(6-Phenyl-1-benzothiophen-2-yl)carbonyl]azetidin-3-yl}-4-(phenylcarbonyl)piperazine]

Kd (mutant MGL; [2]): 0.397 µM
IC50 [1]: 19 nM
SMILES: O=C(COc1ccc(C(=O)N2CC(N3CCN(C(=O)c4nccs4)CC3)C2)cc1)Nc1cccc(C(F)(F)F)c1 [Cpd 1041]

Kd (mutant MGL; [5]): 0.064 µM
IC50 [1]: 393 nM
SMILES: O=C(c1cscn1)N1CCN(C2CN(C(=O)c3cccc4nc(-c5ccccc5)oc34)C2)CC1 [Cpd 1237]

Kd (mutant MGL; [6]): 0.197 µM
IC50 [1]: 461 nM
SMILES: O=C(c1ccc(-c2ccccc2)cc1)N1CCN(C2CN(C(=O)c3cccc(F)c3)C2)CC1 [Cpd 1242, 1-(Biphenyl-4-ylcarbonyl)-4-{1-[(3-fluorophenyl)carbonyl]azetidin-3-yl}piperazine]

Kd (mutant MGL; [5]): 0.007 µM
IC50 [1]: 212 nM
SMILES: O=C(c1ccccc1)N1CCN(C2CN(C(=O)c3sc4cc(C(F)(F)F)ccc4c3-c3ccccc3)C2)CC1 [Cpd 591]

Kd (mutant MGL; [6]): 0.631 µM
IC50 [1]: 3070 nM
SMILES: O=C(c1ccc(-c2ccccc2)cc1)N1CCN(C2CN(C(=O)c3cc[nH]c3)C2)CC1 [Cpd 1292, 1-(Biphenyl-4-ylcarbonyl)-4-[1-(1H-pyrrol-3-ylcarbonyl)azetidin-3-yl]piperazine]

Kd (mutant MGL; [2]): 0.378 µM
IC50 [1]: 680 nM
SMILES: CC1(C)Cc2cc(C(=O)N3CC(N4CCN(C(=O)c5nccs5)CC4)C3)ccc2O1 [Cpd 766]

Kd (mutant MGL; [3]): 0.561 µM
IC50 [1]: 8770 nM
SMILES: Cc1nc2cc(C(=O)N3CC(N4CCN(C(=O)c5cscn5)CC4)C3)ccc2n1CC(F)(F)F [Cpd 858]

Kd (mutant MGL; [6]): 3.04 µM
IC50 [1]: 449 nM
SMILES: O=C(c1cccc(-c2ccc(F)cc2F)c1)N1CC(N2CCN(C(=O)c3cscn3)CC2)C1 [Cpd 1239]

Kd (mutant MGL; [6]): 1.29 µM
IC50 [1]: 10300 nM
SMILES: O=C(c1ccc(-n2cnc3ccccc32)cc1)N1CCN(C2CN(C(=O)c3ccccc3)C2)CC1 [Cpd 610]
